Reference: BindingDB's records for doi:10.1016/s0028-3908(05)80009-7 (Universit&Eacute, 1994)
Where a SMILES comes first, the peptide text is derived from it. [ ]: non-standard residue; d: D form. ξ: configuration not given here. Ile(3ξ) = CCC(C)[C@H](N)C(=O)O

Each compound was assayed against T1, Pituitary adenylate cyclase-activating polypeptide (Rattus norvegicus, UniProt P13589).
T1 sequence (P13589 whole entry): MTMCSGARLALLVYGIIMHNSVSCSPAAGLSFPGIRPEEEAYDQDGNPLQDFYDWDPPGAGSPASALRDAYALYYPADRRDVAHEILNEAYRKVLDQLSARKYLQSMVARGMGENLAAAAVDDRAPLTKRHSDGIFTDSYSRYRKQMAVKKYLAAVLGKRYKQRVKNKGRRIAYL

| Compound | Ki |
| --- | --- |
| CCC(C)[C@H](N)C(=O)N[C@@H](Cc1ccccc1)C(=O)N[C@H](C(=O)N[C@@H](CC(=O)O)C(=O)N[C@@H](CO)C(=O)N[C@@H](Cc1ccc(O)cc1)C(=O)N[C@@H](CO)C(=O)N[C@@H](CCCN=C(N)N)C(=O)N[C@@H](Cc1ccc(O)cc1)C(=O)N[C@@H](CCCN=C(N)N)C(=O)N[C@@H](CCCCN)C(=O)N[C@@H](CCC(N)=O)C(=O)N[C@@H](CCSC)C(=O)N[C@@H](C)C(=O)N[C@H](C(=O)N[C@@H](CCCCN)C(=O)N[C@@H](CCCCN)C(=O)N[C@@H](Cc1ccc(O)cc1)C(=O)N[C@@H](CC(C)C)C(=O)N[C@@H](C)C(=O)N[C@@H](C)C(=O)N[C@H](C(=O)N[C@@H](CC(C)C)C(=O)NCC(=O)N[C@@H](CCCCN)C(=O)N[C@@H](CCCN=C(N)N)C(=O)N[C@@H](Cc1ccc(O)cc1)C(=O)N[C@@H](CCCCN)C(=O)N[C@@H](CCC(N)=O)C(=O)N[C@@H](CCCN=C(N)N)C(=O)N[C@H](C(=O)N[C@@H](CCCCN)C(=O)N[C@@H](CC(N)=O)C(=O)N[C@@H](CCCCN)C(N)=O)C(C)C)C(C)C)C(C)C)[C@@H](C)O (stereo not given in full) [PACAP(5-38)] (H-[Ile(3ξ)]FTDSYSRYRKQMAVKKYLAAVLGKRYKQRVKNK-NH2) | 9 nM |
| CNC(=O)[C@H](Cc1ccc(O)cc1)NC(=O)[C@H](CCCN=C(N)N)NC(=O)[C@H](CCCCN)NC(=O)CNC(=O)[C@H](CC(C)C)NC(=O)[C@@H](NC(=O)[C@H](C)NC(=O)[C@H](C)NC(=O)[C@H](CC(C)C)NC(=O)[C@H](Cc1ccc(O)cc1)NC(=O)[C@H](CCCCN)NC(=O)[C@H](CCCCN)NC(=O)[C@@H](NC(=O)[C@H](C)NC(=O)[C@H](CCSC)NC(=O)[C@H](CCC(N)=O)NC(=O)[C@H](CCCCN)NC(=O)[C@H](CCCN=C(N)N)NC(=O)[C@H](Cc1ccc(O)cc1)NC(=O)[C@H](CCCN=C(N)N)NC(=O)[C@H](CO)NC(=O)[C@H](Cc1ccc(O)cc1)NC(=O)[C@H](CO)NC(=O)[C@H](CC(=O)O)NC(=O)[C@@H](NC(=O)[C@@H](N)Cc1ccccc1)[C@@H](C)O)C(C)C)C(C)C [PACAP(6-31)] (H-FTDSYSRYRKQMAVKKYLAAVLGKRY-NHMe) | 3 nM |
| H-FTDSYSRYRKQMAVKKYLAAVLGKRYKQRV-NH2 [PACAP(6-35)] | 300 nM |
| CSCC[C@H](NC(=O)[C@H](CCC(N)=O)NC(=O)[C@H](CCCCN)NC(=O)[C@H](CCCNC(=N)N)NC(=O)[C@H](Cc1ccc(O)cc1)NC(=O)[C@H](CCCNC(=N)N)NC(=O)[C@H](CO)NC(=O)[C@H](Cc1ccc(O)cc1)NC(=O)[C@H](CO)NC(=O)[C@H](CC(=O)O)NC(=O)[C@@H](NC(=O)[C@@H](N)Cc1ccccc1)[C@@H](C)O)C(=O)N[C@@H](C)C(=O)N[C@H](C(=O)N[C@@H](CCCCN)C(=O)N[C@@H](CCCCN)C(=O)N[C@@H](Cc1ccc(O)cc1)C(=O)N[C@@H](CC(C)C)C(=O)N[C@@H](C)C(=O)N[C@@H](C)C(=O)N[C@H](C(=O)N[C@@H](CC(C)C)C(=O)NCC(=O)N[C@@H](CCCCN)C(=O)N[C@@H](CCCNC(=N)N)C(=O)N[C@@H](Cc1ccc(O)cc1)C(=O)N[C@@H](CCCCN)C(=O)N[C@@H](CCC(N)=O)C(=O)N[C@@H](CCCNC(=N)N)C(=O)N[C@H](C(=O)N[C@@H](CCCCN)C(=O)N[C@@H](CC(N)=O)C(=O)N[C@@H](CCCCN)C(N)=O)C(C)C)C(C)C)C(C)C | 2 nM |
| CCC(C)[C@H](NC(=O)CN)C(=O)N[C@@H](Cc1ccccc1)C(=O)N[C@H](C(=O)N[C@@H](CC(=O)O)C(=O)N[C@@H](CO)C(=O)N[C@@H](Cc1ccc(O)cc1)C(=O)N[C@@H](CO)C(=O)N[C@@H](CCCN=C(N)N)C(=O)N[C@@H](Cc1ccc(O)cc1)C(=O)N[C@@H](CCCN=C(N)N)C(=O)N[C@@H](CCCCN)C(=O)N[C@@H](CCC(N)=O)C(=O)N[C@@H](CCSC)C(=O)N[C@@H](C)C(=O)N[C@H](C(=O)N[C@@H](CCCCN)C(=O)N[C@@H](CCCCN)C(=O)N[C@@H](Cc1ccc(O)cc1)C(=O)N[C@@H](CC(C)C)C(=O)N[C@@H](C)C(=O)N[C@@H](C)C(=O)N[C@H](C(=O)N[C@@H](CC(C)C)C(=O)NCC(=O)N[C@@H](CCCCN)C(=O)N[C@@H](CCCN=C(N)N)C(=O)N[C@@H](Cc1ccc(O)cc1)C(=O)N[C@@H](CCCCN)C(=O)N[C@@H](CCC(N)=O)C(=O)N[C@@H](CCCN=C(N)N)C(=O)N[C@H](C(=O)N[C@@H](CCCCN)C(=O)N[C@@H](CC(N)=O)C(=O)N[C@@H](CCCCN)C(N)=O)C(C)C)C(C)C)C(C)C)[C@@H](C)O (stereo not given in full) [PACAP(4-38)] (H-G[Ile(3ξ)]FTDSYSRYRKQMAVKKYLAAVLGKRYKQRVKNK-NH2) | 20 nM |

The next lines start with the values.

| Ki | Compound |
| --- | --- |
| 10 nM | CC[C@H](C)[C@H](NC(=O)CNC(=O)[C@H](CC(=O)O)NC(=O)[C@@H](CCCN=C(N)N)NC(=O)[C@@H](N)Cc1cnc[nH]1)C(=O)N[C@@H](Cc1ccccc1)C(=O)N[C@H](C(=O)N[C@@H](CC(=O)O)C(=O)N[C@@H](CO)C(=O)N[C@@H](Cc1ccc(O)cc1)C(=O)N[C@@H](CO)C(=O)N[C@@H](CCCN=C(N)N)C(=O)N[C@@H](Cc1ccc(O)cc1)C(=O)N[C@@H](CCCN=C(N)N)C(=O)N[C@@H](CCCCN)C(=O)N[C@@H](CCC(N)=O)C(=O)N[C@@H](CCSC)C(=O)N[C@@H](C)C(=O)N[C@H](C(=O)N[C@@H](CCCCN)C(=O)N[C@@H](CCCCN)C(=O)N[C@@H](Cc1ccc(O)cc1)C(=O)N[C@@H](CC(C)C)C(=O)N[C@@H](C)C(=O)N[C@@H](C)C(=O)N[C@H](C(=O)N[C@@H](CC(C)C)C(=O)NCC(=O)N[C@@H](CCCCN)C(=O)N[C@@H](CCCN=C(N)N)C(=O)N[C@@H](Cc1ccc(O)cc1)C(=O)N[C@@H](CCCCN)C(=O)N[C@@H](CCC(N)=O)C(=O)N[C@@H](CCCN=C(N)N)C(=O)N[C@H](C(=O)N[C@@H](CCCCN)C(=O)N[C@@H](CC(N)=O)C(=O)N[C@@H](CCCCN)C(N)=O)C(C)C)C(C)C)C(C)C)[C@@H](C)O [[DArg2]PACAP(1-38)] |
| 1000 nM | CC[C@H](C)[C@H](NC(=O)CNC(=O)[C@H](CC(=O)O)NC(=O)[C@H](CCCN=C(N)N)NC(=O)[C@@H](N)Cc1cnc[nH]1)C(=O)N[C@@H](Cc1ccccc1)C(=O)N[C@H](C(=O)N[C@@H](CC(=O)O)C(=O)N[C@@H](CO)C(=O)N[C@@H](Cc1ccc(O)cc1)C(=O)N[C@@H](CO)C(=O)N[C@@H](CCCN=C(N)N)C(=O)N[C@@H](Cc1ccc(O)cc1)C(=O)N[C@@H](CCCN=C(N)N)C(=O)N[C@@H](CCCCN)C(=O)N[C@@H](CCC(N)=O)C(=O)N[C@@H](CCSC)C(=O)N[C@@H](C)C(=O)N[C@H](C(=O)N[C@@H](CCCCN)C(=O)N[C@@H](CCCCN)C(=O)N[C@@H](Cc1ccc(O)cc1)C(=O)N[C@@H](CC(C)C)C(=O)N[C@@H](C)C(=O)N[C@@H](C)C(=O)N[C@H](C(=O)N[C@@H](CC(C)C)C(N)=O)C(C)C)C(C)C)[C@@H](C)O [[Arg2]PACAP(1-27)] |
| 600 nM | CC[C@H](C)[C@H](NC(=O)CNC(=O)[C@H](CC(=O)O)NC(=O)[C@H](CO)NC(=O)[C@@H](N)Cc1ccccc1)C(=O)N[C@@H](Cc1ccccc1)C(=O)N[C@H](C(=O)N[C@@H](CC(=O)O)C(=O)N[C@@H](CO)C(=O)N[C@@H](Cc1ccc(O)cc1)C(=O)N[C@@H](CO)C(=O)N[C@@H](CCCN=C(N)N)C(=O)N[C@@H](Cc1ccc(O)cc1)C(=O)N[C@@H](CCCN=C(N)N)C(=O)N[C@@H](CCCCN)C(=O)N[C@@H](CCC(N)=O)C(=O)N[C@@H](CCSC)C(=O)N[C@@H](C)C(=O)N[C@H](C(=O)N[C@@H](CCCCN)C(=O)N[C@@H](CCCCN)C(=O)N[C@@H](Cc1ccc(O)cc1)C(=O)N[C@@H](CC(C)C)C(=O)N[C@@H](C)C(=O)N[C@@H](C)C(=O)N[C@H](C(=O)N[C@@H](CC(C)C)C(N)=O)C(C)C)C(C)C)[C@@H](C)O [[Phe1]PACAP(1-27)] |
| 2 nM | CCC(C)[C@H](NC(=O)CNC(=O)[C@H](CC(=O)O)NC(=O)[C@H](Cc1ccccc1)NC(=O)[C@@H](N)Cc1cnc[nH]1)C(=O)N[C@@H](Cc1ccccc1)C(=O)N[C@H](C(=O)N[C@@H](CC(=O)O)C(=O)N[C@@H](CO)C(=O)N[C@@H](Cc1ccc(O)cc1)C(=O)N[C@@H](CO)C(=O)N[C@@H](CCCN=C(N)N)C(=O)N[C@@H](Cc1ccc(O)cc1)C(=O)N[C@@H](CCCN=C(N)N)C(=O)N[C@@H](CCCCN)C(=O)N[C@@H](CCC(N)=O)C(=O)N[C@@H](CCSC)C(=O)N[C@@H](C)C(=O)N[C@H](C(=O)N[C@@H](CCCCN)C(=O)N[C@@H](CCCCN)C(=O)N[C@@H](Cc1ccc(O)cc1)C(=O)N[C@@H](CC(C)C)C(=O)N[C@@H](C)C(=O)N[C@@H](C)C(=O)N[C@H](C(=O)N[C@@H](CC(C)C)C(=O)NCC(=O)N[C@@H](CCCCN)C(=O)N[C@@H](CCCN=C(N)N)C(=O)N[C@@H](Cc1ccc(O)cc1)C(=O)N[C@@H](CCCCN)C(=O)N[C@@H](CCC(N)=O)C(=O)N[C@@H](CCCN=C(N)N)C(=O)N[C@H](C(=O)N[C@@H](CCCCN)C(=O)N[C@@H](CC(N)=O)C(=O)N[C@@H](CCCCN)C(N)=O)C(C)C)C(C)C)C(C)C)[C@@H](C)O (stereo not given in full) [[Phe2]PACAP(1-38)] (H-HFDG[Ile(3ξ)]FTDSYSRYRKQMAVKKYLAAVLGKRYKQRVKNK-NH2) |
| 8 nM | CCC(C)[C@H](NC(=O)CNC(=O)[C@H](CC(=O)O)NC(=O)[C@@H](Cc1ccccc1)NC(=O)[C@@H](N)Cc1cnc[nH]1)C(=O)N[C@@H](Cc1ccccc1)C(=O)N[C@H](C(=O)N[C@@H](CC(=O)O)C(=O)N[C@@H](CO)C(=O)N[C@@H](Cc1ccc(O)cc1)C(=O)N[C@@H](CO)C(=O)N[C@@H](CCCN=C(N)N)C(=O)N[C@@H](Cc1ccc(O)cc1)C(=O)N[C@@H](CCCN=C(N)N)C(=O)N[C@@H](CCCCN)C(=O)N[C@@H](CCC(N)=O)C(=O)N[C@@H](CCSC)C(=O)N[C@@H](C)C(=O)N[C@H](C(=O)N[C@@H](CCCCN)C(=O)N[C@@H](CCCCN)C(=O)N[C@@H](Cc1ccc(O)cc1)C(=O)N[C@@H](CC(C)C)C(=O)N[C@@H](C)C(=O)N[C@@H](C)C(=O)N[C@H](C(=O)N[C@@H](CC(C)C)C(=O)NCC(=O)N[C@@H](CCCCN)C(=O)N[C@@H](CCCN=C(N)N)C(=O)N[C@@H](Cc1ccc(O)cc1)C(=O)N[C@@H](CCCCN)C(=O)N[C@@H](CCC(N)=O)C(=O)N[C@@H](CCCN=C(N)N)C(=O)N[C@H](C(=O)N[C@@H](CCCCN)C(=O)N[C@@H](CC(N)=O)C(=O)N[C@@H](CCCCN)C(N)=O)C(C)C)C(C)C)C(C)C)[C@@H](C)O (stereo partly drawn) [[D-Phe2]PACAP-38] (H-H[dF]DG[Ile(3ξ)]FTDSYSRYRKQMAVKKYLAAVLGKRYKQRVKNK-NH2) |
